{
  "source": "paper PMC4850449",
  "about": "“Bufexamac ameliorates LPS-induced acute lung injury in mice by targeting LTA4H” (Scientific Reports, 2016)",
  "target": "T1, LTA4H (leukotriene A4 hydrolase) (Homo sapiens, UniProt P09960)",
  "T1 sequence (P09960 2-611)": "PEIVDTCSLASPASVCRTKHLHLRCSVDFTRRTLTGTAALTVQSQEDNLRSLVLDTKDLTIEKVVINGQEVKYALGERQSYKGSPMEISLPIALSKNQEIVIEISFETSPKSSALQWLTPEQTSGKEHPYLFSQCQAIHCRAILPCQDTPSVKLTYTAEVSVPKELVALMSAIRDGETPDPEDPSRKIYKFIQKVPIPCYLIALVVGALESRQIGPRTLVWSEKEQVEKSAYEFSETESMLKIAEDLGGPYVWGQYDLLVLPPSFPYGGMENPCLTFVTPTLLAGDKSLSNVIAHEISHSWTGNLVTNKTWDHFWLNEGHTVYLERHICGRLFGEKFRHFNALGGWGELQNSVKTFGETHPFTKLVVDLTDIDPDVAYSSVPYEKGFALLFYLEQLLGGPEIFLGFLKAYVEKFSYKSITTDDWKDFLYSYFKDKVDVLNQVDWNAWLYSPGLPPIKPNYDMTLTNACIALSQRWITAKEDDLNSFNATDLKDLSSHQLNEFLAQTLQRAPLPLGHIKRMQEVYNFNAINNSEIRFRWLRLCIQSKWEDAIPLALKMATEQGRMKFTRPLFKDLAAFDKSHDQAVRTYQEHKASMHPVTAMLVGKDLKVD",
  "experiment": "X-ray co-crystal structure ([…] Å); purified enzyme inhibition (epoxide hydrolase IC50 […], aminopeptidase IC50 […])",
  "type": "biochemical",
  "data": [
    {"smiles": "CCCCOc1ccc(CC(=O)NO)cc1", "note": "[Bufexamac]", "values": [
      {"measurement": "IC50", "result": 11.6, "unit": "µM"}
    ]}
  ]
}
